Broadly, the IC50 is the midpoint of a concentration-inhibition curve. Read a low IC50 as greater potency in that assay.

Some results are limits rather than exact numbers.

Among the data in patent publication US20080234300A1, “Pyrimido[5,4-c] Quinoline-2, 4-Diamine Derivatives and Methods of Use Thereof” (WYETH, priority 2007, published 2008) are IC50 values, retold here.

For the assay, the target named is T1, PDK-1 (Homo sapiens, UniProt O15530).
T1 sequence (O15530 1-556): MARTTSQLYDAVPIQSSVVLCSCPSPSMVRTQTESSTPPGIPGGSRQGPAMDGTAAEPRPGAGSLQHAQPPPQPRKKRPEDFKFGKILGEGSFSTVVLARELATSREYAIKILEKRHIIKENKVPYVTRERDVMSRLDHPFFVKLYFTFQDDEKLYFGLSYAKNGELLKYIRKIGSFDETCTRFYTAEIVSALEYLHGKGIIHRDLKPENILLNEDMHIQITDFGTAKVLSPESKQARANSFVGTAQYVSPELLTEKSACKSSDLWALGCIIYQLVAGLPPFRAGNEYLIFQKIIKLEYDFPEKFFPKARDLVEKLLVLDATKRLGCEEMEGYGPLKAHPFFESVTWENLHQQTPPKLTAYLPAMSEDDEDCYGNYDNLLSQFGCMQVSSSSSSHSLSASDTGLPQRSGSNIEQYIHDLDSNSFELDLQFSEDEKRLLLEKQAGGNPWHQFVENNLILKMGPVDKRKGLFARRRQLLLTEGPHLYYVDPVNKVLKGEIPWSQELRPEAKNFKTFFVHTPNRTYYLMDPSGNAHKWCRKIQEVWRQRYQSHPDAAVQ
The assay can be described thus: PDK-1 kinase inhibition ELISA assay (phosphorylation of His6-tagged SGK1 S422D by PDK-1). The class given is biochemical. Particulars: in vitro ELISA; phosphorylation of His6-tagged SGK1 (S422D) on Thr256 by PDK-1, 20 minutes, chemiluminescent detection. How it is done:
The ability of an illustrative Pyrimido[5,4-c]quinoline-2,4-diamine Derivative to inhibit PDK-1 in vitro can be determined using an ELISA assay as described in Kobayashi et al., Biochem. J. 339:319-328 (1999) and Park et al., EMBO J. 18:3024-3033 (1999).
In an in vitro assay, His6-tagged SGK1 with S422D mutation (formerly Upstate Biotech, now Millipore) on Thr256 is allowed to be phosphorylated by PDK-1 in the presence of a Pyrimido[5,4-c]quinoline-2,4-diamine Derivative. After 20 minutes, the reaction is quenched via the addition of urea. The His6-tagged SGK1 is then bound to 96 well Ni-NTA HisSorb plates (Quiagen, Inc.) and phosphorylated SGK1 is quantitatively detected using rabbit derived anti-phospho SGK antibody (Cell Signaling Technology) as the primary antibody and horseradish peroxidase (HRP)— coupled anti-rabbit antibody (formerly Zymed, now Invitrogen) as the secondary antibody. HRP is then detected using a chemiluminescent substrate (Pierce Chemical Co.).
IC50 values of illustrative Pyrimido[5,4-c]quinoline-2,4-diamine Derivatives, shown in Table 4, are calculated using LSW Data Analysis package add-in for Excel (Microsoft).
Background: An ELISA detects its analyte on a solid surface through an enzyme-linked reagent.
For `COCCOc1cc2ncc3c(N)nc(N4CCCC4)nc3c2cc1OC` [Ia-14, 9-methoxy-8-(2-methoxyethoxy)-2-pyrrolidin-1-ylpyrimido[5,4-c]quinolin-4-amine], the IC50 was 6.55 µM. The compound `COCCOc1cc2ncc3c(N)nc(N4CCC[C@H]4COC)nc3c2cc1OC` [Ia-16, 9-methoxy-8-(2-methoxyethoxy)-2-[(2S)-2-(methoxymethyl)pyrrolidin-1-yl]pyrimido[5,4-c]quinolin-4-amine] returned an IC50 of 39.6 µM. Against the preceding compound, the IC50 is about 6-fold higher. For `COCCOc1cc2ncc3c(N)nc(N4CCC[C@@H]4COC)nc3c2cc1OC` [Ia-15, 9-methoxy-8-(2-methoxyethoxy)-2-[(2R)-2-(methoxymethyl)pyrrolidin-1-yl]pyrimido[5,4-c]quinolin-4-amine], the IC50 is 2.15 µM.

In turn, `COCCOc1cc2ncc3c(N)nc(N4CCN(C)CC4)nc3c2cc1OC` [Ia-7, 9-methoxy-8-(2-methoxyethoxy)-2-(4-methylpiperazin-1-yl)pyrimido[5,4-c]quinolin-4-amine] registered an IC50 greater than 200 µM. `COc1cc2ncc3c(N)nc(N)nc3c2cc1OC` [Ia-1, 8,9-dimethoxypyrimido[5,4-c]quinoline-2,4-diamine] returned an IC50 of 12.2 µM. Compound `COCCOc1cc2ncc3c(N)nc(NC4CCCCC4)nc3c2cc1OC` [Ia-17, N2-cyclohexyl-9-methoxy-8-(2-methoxyethoxy)pyrimido[5,4-c]quinoline-2,4-diamine] showed an IC50 of 5.43 µM.

On to `CCOc1cc2ncc3c(N)nc(N)nc3c2cc1OCC` [Ia-2, 8,9-diethoxypyrimido[5,4-c]quinoline-2,4-diamine], for which the IC50 came out at 18 µM. This IC50 is about 3.3-fold higher than that of the compound before.

The compound `COCCOc1cc2ncc3c(N)nc(N4CCOCC4)nc3c2cc1OC` [Ia-5, 9-methoxy-8-(2-methoxyethoxy)-2-morpholin-4-ylpyrimido[5,4-c]quinolin-4-amine] came in with an IC50 greater than 200 µM.

For `COCCOc1cc2ncc3c(N)nc(N4CCC5(CC4)OCCO5)nc3c2cc1OC` [Ia-10, 2-(1,4-dioxa-8-azaspiro[4.5]dec-8-yl)-9-methoxy-8-(2-methoxyethoxy)pyrimido[5,4-c]quinolin-4-amine], the IC50 was determined as 50.5 µM.

For the compound `CCOc1cc2ncc3c(N)nc(N4CCOCC4)nc3c2cc1OCC` [Ia-4, 8,9-diethoxy-2-morpholin-4-ylpyrimido[5,4-c]quinolin-4-amine], half-maximal inhibition (IC50) was put at 55.7 µM. The IC50 values of the last two compounds are within 1.5-fold of each other. `COCCOc1cc2ncc3c(N)nc(N4CCC(O)C4)nc3c2cc1OC` (stereo not shown) [Compound Ia-6, 1-[4-Amino-9-methoxy-8-(2-methoxyethoxy)pyrimido[5,4-c]quinolin-2-yl]pyrrolidin-3-ol]: it took 36.3 µM to reach half-maximal inhibition (IC50). In the case of `CCNc1nc(N)c2cnc3cc(OCCOC)c(OC)cc3c2n1` [Ia-9, N2-ethyl-9-methoxy-8-(2-methoxyethoxy)pyrimido[5,4-c]quinoline-2,4-diamine], the IC50 is greater than 200 µM.

For `COCCOc1cc2ncc3c(N)nc(N(C)C)nc3c2cc1OC` [Ia-8, 9-methoxy-8-(2-methoxyethoxy)-N2,N2-dimethylpyrimido[5,4-c]quinoline-2,4-diamine], it took 9.33 µM to reach half-maximal inhibition (IC50). This counts as single-digit micromolar. `COCCOc1cc2ncc3c(N)nc(N4CCN(c5ccccc5)CC4)nc3c2cc1OC` [Ia-18, 9-methoxy-8-(2-methoxyethoxy)-2-(4-phenylpiperazin-1-yl)pyrimido[5,4-c]quinolin-4-amine] gave an IC50 of 111 µM. Take `COCCOc1cc2ncc3c(N)nc(N4CCC(=O)CC4)nc3c2cc1OC` [Ia-13, 1-[4-amino-9-methoxy-8-(2-methoxyethoxy)pyrimido[5,4-c]quinolin-2-yl]piperidin-4-one]: the IC50 was greater than 200 µM.

Turning to `COCCOc1cc2ncc3c(N)nc(N4CCOc5ccccc5C4)nc3c2cc1OC` [Ia-20, 2-(2,3-dihydro-1,4-benzoxazepin-4(5H)-yl)-9-methoxy-8-(2-methoxyethoxy)pyrimido[5,4-c]quinolin-4-amine], the midpoint of inhibition, the IC50, lay at 83.1 µM.
